Tests used:
[1] = system: mouse colorectal cancer cell line CT26
Method: Experimental animals: BALB/c ordinary mice, male, weighing 20-22 grams, 7-8 weeks old, at SPF level, purchased from Shanghai SLAC Laboratory Animal Co. Ltd.
Tumour cell line herein was the mouse colorectal cancer cell line CT26 purchased from Chinese Academy of Sciences Cell Bank.
Establishment and intervention of tumor model mice: cells were subjected to culture and subculture, collected in the logarithmic phase and prepared as 1.0×10^7/mL of cell suspension. 0.2 mL of the cell suspension was injected armpits of forelegs of the mice (with a cell number of 2.0×10^6), and tumor transplantation was successful in about 7 days. The mice were randomly divided into 5 groups (10 mice in each group). […] The mice were subjected to administration by intraperitoneal injection with the volume of 200 μL per mice once every 2 days for 20 days. After 20 days, the mice were weighed and their blood was collected. Then the mice were killed, and the tumor were weighed. The formula of inhibitory rate of tumor was represented as inhibitory rate of tumor=[1-average tumor weight of experimental group/average tumor weight of the negative control group]×100%.

[2] = system: IRI mice (male SD mice); assay: Cerebral ischemia-reperfusion injury (IRI) model, TTC dyeing; format: in vivo; conditions: 2 h ischemia, 24 h reperfusion; caudal vein injection 5 mg/kg (Edaravone 6 mg/kg) after 30 min ischemia
Method: Experimental animals: healthy male mice, weighing 280-300 grams, purchased from Shanghai SLAC Laboratory Animal Co. Ltd, with quality certificate No. (SCXK (Shanghai) 2007-0005), and kept in clean animal houses.
Establishment of a mouse cerebral ischemia model of mice and experimental method: 280-300 grams of male […] mice were selected for experiments. The male SD mice were subjected to fasting without water deprivation for 12 h before operation followed by weighing, numbering and random grouping. The male SD mice were anesthetized by intraperitoneal injection of 10 wt. % chloral hydrate at a dosage of 0.3 mL/100 g. After the male SD mice had no pain reflexes, they were subjected to neck skin preparation followed by being fixed on a dissecting table in supine position. After neck skins were disinfected with sterilized cotton balls, about 1 cm of the neck skins were cut in mid-cervical to expose subcutaneous tissues, and subcutaneous fat and the fascia were bluntly plucked with curved tweezers to expose neck muscle groups. The common carotid arteries and their upwardly internal and external carotid branches were visualized by opening the digastric muscle. The external, internal, and common carotid arteries were carefully dissected, and a thin wire was threaded under each of the three arteries, and homemade plastic spacers were placed under the common carotid arteries. The external carotid arteries and proximal ends of the common carotid arteries were ligated. After the internal common carotid arteries were clamped by arterial clips, the common carotid arteries were stuck into with homemade curved hooks followed by picking up and leading in monofilaments. The spacers were removed, and the monofilaments were gently pushed into the internal common carotid arteries and craniums. […] At this time, blood supplies of the middle cerebral arteries from the anterior cerebral arteries were blocked. Thin wires under the internal carotid arteries were ligated to secure the monofilaments to prevent the monofilaments from retreating. Excess thin wires were cut, penicillin was applied to wounds to prevent infection. The male SD mice were sutured and placed under a warm lamp to keep warm. Timing was performed when blood flows of the middle cerebral arteries were blocked by the monofilaments. After 2 hours, the monofilaments were gently pulled out and the black marks were seen, then reperfusion can be achieved.
Triphenyl tetrazolium chloride (TTC) dyeing: After being injured by 2 h cerebral ischemia and 24 h reperfusion, the male SD mice were anesthetized with 0.3 mL/100 g dosage of 10 wt. % of chloral hydrate by intraperitoneal injection and subjected to abdominal aorta bleeding to reduce influence of blood in brains. Then whole heads of the male SD mice were removed immediately after decapitating, and washed with normal saline followed by being promptly put into a −20° C. refrigerator to freeze for 20 min. Frozen brains were collected and subjected to coronal sections, each 2 mm of thickness, by a blade. Then the coronal sections were subjected to dark dyeing in a 2 wt. % of TTC solution for 20 min and fixing in a 4 wt. % of polyformaldehyde solution for 6 h followed by photographing. Then, Photoshop software was used to define area and calculate, and a formula was represented as a percentage of cerebral ischemic area=a total area of white area/a total area of ischemic hemisphere×100%.
Drug preparation and experimental grouping: Edaravone was used as a positive control drug, and an Edaravone injection was 30 mg/20 mL. A single dosage for each of the male SD mice was 0.4 mL/100 g, that is, 6 mg/kg. The cyclic dinucleotide metal compounds prepared in Examples 1-5 were prepared into […] injection drugs with the normal saline. Each of the male SD mice was subjected to caudal vein injection with 0.4 mL/100 g dosage of drugs, that is, 5 mg/kg. The male SD mice were divided into 8 groups (10 mice in each group). […]

[3] = oxaliplatin 5 mg/kg alone or + 10 mg/kg compound, intraperitoneal once every 2 days, 20 days
[4] = peripheral blood after 20 days administration
[5] = serum after 20 days administration

| Structure (SMILES) | Inhibitory rate (of tumor) ([1]; CT26, oxaliplatin 5 mg/kg alone or + 10 mg/kg compound, 20 days) | Survival rate [1, 3] | Weight loss [1, 3] | Hemoglobin [1, 4] | Platelets [1, 4] | Red blood cells [1, 4] | White blood cells [1, 4] | ALT [1, 5] | Creatinine [1, 5] | Average value of percentage of cerebral ischemic area [2] |
| --- | --- | --- | --- | --- | --- | --- | --- | --- | --- | --- |
| O=C1[O][Pt]2([NH][C@@H]3CCCC[C@H]3[NH]2)[O]C1=O [oxaliplatin] | 78% | 50% | 40% | 88 ± 9 g/L | 368 ± 56 × 10^3/μL | 4.51 ± 0.65 × 10^6/μL | 3.87 ± 0.08 × 10^3/μL | 118.25 ± 7.84 U/L | 80.33 ± 4.65 µmol/L |  |
| CC1=NN(c2ccccc2)C(=O)C1 [Edaravone, reference compound] |  |  |  |  |  |  |  |  |  | 28.97% |
